Laboratory results from patent US5856535A, “Aminosterol ester compounds” (priority 1996, dated 1999).
≈ marks a conversion by molar mass, not a printed value. Entries after “also recorded” stand apart in the source; their conditions may differ. One block for each molecule: values may come before it.

Experiments:
[1] = PBMC toxicity; conditions: human
[2] = test system: Xenopus laevis Stages 59-60 tadpoles; assay: tadpole assay; format: in vivo; conditions: for vascular effect in tadpole (in words): about 60 minutes, 10 μg/ml where stated
[3] = test system: HIV; assay: inhibition of HIV replication in vitro (HIV Inhib.); format: cell-based
[4] = inhibition of MSI-1436 binding; conditions: 3H-MSI-1436 at 20 μg/mL
[5] = test system: melanoma cells; assay: MTT assay for cell number; format: cell-based; conditions: Tables III-V; read-out: MTT assay IC50
Description: In Table V, several aminosterol esters show efficacy in killing melanoma cells in the MTT assay.
The MTT assay for cell number is performed as follows. Cells are counted on a hemocytometer and diluted to a concentration of approx. 10,000 cells/well (55,000 cells/ml×0.18 ml). Cells are then plated in a 96 well microtiter plate and allowed to attach overnight. The next day, compounds are serially diluted from 1000 to 15.6 μg/ml and run in duplicate. 20 μl of each dilution are transferred to the pre-seeded microtiter plates. The final concentrations are 100 to 1.56 μg/ml. The plates are then incubated for 48 hours at 37° C. in 5% CO2. After 48 hours, MTT solution is added. The plate is re-incubated for 4 hours. Readings are done by removing all but 30 μl of media and MTT solution and dissolving the formazan crystals with DMSO. The formazan is dissolved by mixing on a rotating plate at low speed for about 30 minutes. Absorbance of converted dye is measured at a wavelength of 560 nm with background subtraction at 630 nm. The percent survival is determined by a comparison between the mean absorbance of the duplicate test lanes and the growth control.

[6] = test system: splenocytes; assay: mitogen proliferation assay (splenocytes of treated mice, Con A); format: in vivo; conditions: 10 mg/kg iv
Description: For the attached Tables, the mitogen proliferation assay was performed by treating mice (male or female) with various amounts of the aminosterol test compounds. Some time later (typically between 2 hours and 14 days), the mice are sacrificed and their spleens removed. Splenocytes are harvested and cultured in the presence of between 1-10 μg/ml of Con A (Sigma) for 48 hours. See James Morgan, "Monoclonal Antibody Production," Modern Methods in Pharmacology, pp. 29-67, eds., Spector and Back, 1988. This excerpt is entirely incorporated herein by reference. Cell proliferation is monitored either by direct cell counting or by measurement of the incorporation of radioactive thymidine.

[7] = test system: chick embryo vitelline capillaries; assay: chick embryo vitelline capillary regression assay; format: in vivo; conditions: for effect on vitelline capillaries (in words): 3- to 5-day chick embryo
Description: Using the chick embryo vitelline capillaries assay, various aminosterol compounds were tested for their ability to induce capillary regression. Each compound was applied in 0.1 ml of 15% Ficol 400 and PBS onto the embryo, and vascular regression was assessed after 60 minutes. These tests were conducted by the chorioallantoic membrane anti-angiogenesis assay by applying the material to be assayed to 3 day old fertilized chick embryos in the manner described by Wilks et al., "Inhibition of Angiogenesis With Combination Angiostatic Steroids and Suramin," Radiation Biology, Vol. 60, Nos. 1/2, 1991, pp. 73-77, which article is entirely incorporated herein by reference.
The 3-day chick embryo consists of an embryonic disc from which numerous vessels emerge and return, forming a "figure 8"-shaped structure--the embryo in the center with vascular loops extending outward over both poles. […] Following a lag period of around 15 minutes, the constriction of continuity between capillary and secondary vessels, generally on the "venous" side, was observed. Continued pulsatile blood flow progressed, resulting in a "swelling" of the blind tube, followed by a pinching off of the remaining connection and formation of an enclosed vascular sac resembling a "blood island." This process progressed until only the largest vessels remained intact.

[8] = test system: bacteria, fungi and protozoa; conditions: cited from earlier work
[9] = test system: human microvascular cells; assay: endothelial cell cord formation assay (human microvascular cells, VEGF and bFGF, collagen matrix); format: cell-based
Source text: Endothelial cells have the capacity in vitro to form tubular aggregates resembling capillaries in various early stages of formation. This conversion occurs under relatively specific conditions, in which essential growth factors along with an effective substratum are provided. It has been shown that both the interaction of growth factors with the endothelial cell and its attachment to a substratum activate the NHE. The activation of this exchanger is believed to be required for subsequent morphologic transformation of the endothelial cell into a multicellular tubular structure.
To assess the effect of compounds on the cord-like structures formed by human microvascular cells when plated in the presence of VEGF (Vascular Endothelial Growth Factor) and basic fibroblast growth factor on a collagen matrix, a standard cord formation assay was performed using the method described by Goto, et al., "Synergistic Effects of Vascular Endothelial Growth Factor and Basic Fibroblast Growth Factor on the Proliferation and Cord Formation of Bovine Capillary Endothelial Cells Within Collagen Gels," Laboratory Investigation, Vol. 69, No. 5, 1993, pp. 508-517. This article is entirely incorporated herein by reference.

% Inhib. of MSI-1436 Binding @ 100 μg/mL [4]: 82% | IC50 [5]: 7.8 µg/mL (≈ 11.4 µM)
SMILES: CC(C)[C@@H](CC[C@@H](C)[C@H]1CC[C@H]2[C@@H]3[C@H](O)C[C@H]4C[C@@H](NCCCNCCCCNCCCN)CC[C@]4(C)[C@H]3CC[C@]12C)OS(=O)(=O)O [Compound 1436, reference compound]
cytotoxicity at 14 µM [1]: 0% | vascular effect in tadpole (in words) [2]: common vascular occlusive effect | % Inhib of HIV ([3]; 140 nM, 0.14 µM): 78% | inhibition at 0.14 µM ([3]; Human immunodeficiency virus 1, 140 nM, read-out: % Inhib of HIV): 76% | Rel. potency to MSI-1436, Mitogen Proliferation Assay [6]: 1

SMILES: CC(C)[C@@H](CC[C@@H](C)[C@H]1CC[C@H]2[C@@H]3[C@H](O)C[C@H]4C[C@@H](NCCCNCCCCN)CC[C@]4(C)[C@H]3CC[C@]12C)OS(=O)(=O)O [Squalamine, squalamine, reference compound]
unaffected functions in tadpole (in words) ([2]; 10 μg/ml): continued heartbeat; also recorded: unaltered blood flow through the fine capillaries of the hands and feet | vascular effect in tadpole (in words) [2]: blood flow through the capillaries of the tail shut down; also recorded: enhanced regression of the most distal aspects of the tail; also recorded: common vascular occlusive effect | effect on vitelline capillaries (in words) [7]: disrupt vitelline capillaries in 3- to 5-day chick embryos | effect on vitelline capillaries (in words) ([7]; listed as squalamine): dramatic and rapid effect on capillary vessel integrity; also recorded: especially active | hemorrhage, hemolysis and heartbeat of embryo (in words) ([7]; 3-day chick embryo): embryonic heart continued to beat vigorously; also recorded: No hemorrhage was seen; also recorded: absence of hemolysis | antibiotic activity (in words) [8]: broad-spectrum antibiotic, killing bacteria, fungi and protozoa | minimal effective concentration ([9]; Homo sapiens, Endothelial cell, text to the table, read-out: concentration at which cord formation is inhibited): ~0.1 µg/mL | effect on cell viability or proliferation (in words) ([9]; at these concentrations): does not appear to profoundly affect cell viability or proliferation
